Data set [1] in a line: [6R]-MTHF levels after arfolitixorin versus comparable leucovorin treatment. In kind it is in vivo. The text has this: Leucovorin and l-leucovorin, both currently approved for treatment of gastrointestinal and other cancers, need to be metabolically activated to [6R]-MTHF to potentiate the effect of 5-FU. This dependency on cellular activation provides a hurdle for reaching sufficient levels of the active [6R]-MTHF. […] Secondly, the enzymatic activation is genetically regulated^16,18, and is therefore associated with variability between individuals and conditions. Arfolitoxirin is believed to be efficacious in a larger proportion of patients with less inter- and intra-individual variability. These differences may potentially turn out to be of significant importance for increased clinical efficacy in 5-FU based cancer treatment.

Data set [2] in a line: Stability of [6R]-5,10-MTHF forms. The class given is physicochemical. The text has this:
Arfolitixorin (former Modufolin®) is a folate-based biomodulator developed by applicant to improve the outcome of a range of antimetabolite treatments used within oncology. One of the therapeutic areas of specific interest included in the development program of arfolitixorin is as biomodulator of 5-fluorouracil (5-FU) activity in standard treatment regime for advanced, metastatic CRC, such as Stage IV. A stable lyophilizate formulation of the naturally occurring diastereoisomeric folate [6R]-5,10-MTHF has successfully been made from the drug substance arfolitixorin hemisulfate. […] As mentioned in the background section of the present application, [6R]-5,10-methylenetetrahydrofolate, abbreviated herein as [6R]-5,10-MTHF, needs to be metabolically formed when using the widely used folate-based drugs leucovorin and levoleucovorin.

The conditions of data set [3]: cited from earlier work.
The conditions of data set [4]: cited from earlier work. The source holds these as a separate data set.
The conditions of data set [5]: in vivo; cited from earlier work.
The subject of data set [6] is metastatic pancreatic cancer. As to conditions: PRODIGE 4, 342 patients enrolled; cited from earlier work.
The test system of data set [7] is metastatic pancreatic cancer. As to conditions: MPACT study; cited from earlier work.
For data set [8], the system named is metastatic pancreatic cancer. Conditions: standard first-line treatment until 2011; cited from earlier work.
For data set [9] the following is noted: in vitro; cited from earlier work.

Where two headings read alike, the source gives them in different places.

Take `Nc1nc2c(c(=O)[nH]1)N1CN(c3ccc(C(=O)N[C@@H](CCC(=O)O)C(=O)O)cc3)C[C@H]1CN2` [Arfolitixorin, [6R]-5,10-methylenetetrahydrofolate]: in [1], the “[6R]-MTHF levels relative to comparable treatment with leucovorin” value is recorded as 3-4 times. The stability result in data set [2] is listed as “very unstable”.

With `Cc1ncc(CO)c(CO)c1O.Cl` [Pyridoxine hydrochloride], the solubility in water result in [3] is reported as “One gram dissolves in 5 mL of water”. Further, in [4] (air), the stability in air entry is on record as “stable in air”. For the same compound, the stability to sunlight result in [4] (sunlight) is given as “slowly affected by sunlight”.

On to `Nc1nc2c(c(=O)[nH]1)N1CN(c3ccc(C(=O)N[C@@H](CCC(=O)O)C(=O)O)cc3)C[C@H]1CN2.Nc1nc2c(c(=O)[nH]1)N1CN(c3ccc(C(=O)N[C@@H](CCC(=O)O)C(=O)O)cc3)C[C@H]1CN2.O=S(=O)(O)O` [arfolitixorin hemisulfate], for which the stability result in data set [2] is reported as “unexpectedly stable salt”.

Consider `Nc1nc2c(c(=O)[nH]1)N(C=O)[C@H](CNc1ccc(C(=O)N[C@@H](CCC(=O)O)C(=O)O)cc1)CN2` [d-LV], for which the “excretion by the kidneys” value in data set [5] was “slowly excreted”.

For the compound `Nc1ccn([C@@H]2O[C@H](CO)[C@@H](O)C2(F)F)c(=O)n1` [gemcitabine], in data set [6], the “median overall survival (mOS)” value is 6.8 months and the “objective response rate (ORR)” value is listed as 9.4%. Besides, in data set [7], the ORR is 7% and the mOS is on record as 6.7 months. Further, in data set [8], the “median overall survival (mOS)” value was “about 6 months”.

`Nc1nc(=O)c2c([nH]1)NC[C@H](CNc1ccc(C(=O)N[C@@H](CCC(=O)O)C(=O)O)cc1)N2C=O` [l-LV, [6S]-5-formyl-THF]: in data set [9], the “conversion to methyl-tetrahydrofolate form” value was “rapidly converted”.

In the case of FOLFIRINOX, in data set [6], the “median overall survival (mOS)” value is reported as 11.1 months and the “objective response rate (ORR)” value is recorded as 31.6%.

These data come from patent US20240350467A1, “[6R]-MTHF IN B6 ENHANCED 5-FU BASED CHEMOTHERAPY OF PANCREATIC CANCER” (Isofol Medical AB, priority 2023, published 2024).
